In patent publication US11655216B2 (priority 2016, dated 2023):
Like-named read-outs stand apart in the source and are kept apart here.

Key:
[1] = target: T1, glutathione-S-transferase (GST) tagged LXRbeta LBD (ligand binding domain) (Homo sapiens, UniProt P55055); test: LanthaScreen TR-FRET Liver X Receptor Coactivator Assay, LXR beta; assay type: biochemical; conditions: for EC50: LXR beta IP, potency (Inflection Point), compound-induced co-activator recruitment, TR-FRET; for Emax: read-out: LXR beta actiivty at max dose, efficacy (% Emax) in relation to reference dual agonist T0901317
T1 construct: purchased Invitrogen pv4658
T1 sequence (P55055 222-460 limits assumed): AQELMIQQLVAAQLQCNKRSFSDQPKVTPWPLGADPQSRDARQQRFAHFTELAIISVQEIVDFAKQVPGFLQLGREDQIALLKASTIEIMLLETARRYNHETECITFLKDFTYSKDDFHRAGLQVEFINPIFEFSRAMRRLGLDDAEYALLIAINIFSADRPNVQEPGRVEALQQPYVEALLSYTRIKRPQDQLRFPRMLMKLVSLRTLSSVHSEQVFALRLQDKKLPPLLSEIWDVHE
In short: (§1)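 LXR alpha- or beta-LBD added to test compounds, then fluorescein-labelled coactivator peptide plus terbium anti-GST antibody. After incubation at room temperature, TR-FRET read on a filter-based plate reader.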

[2] = target: T2, glutathione-S-transferase (GST) tagged LXRalpha LBD (ligand binding domain) (Homo sapiens, UniProt Q13133); test: biochemical; conditions: for EC50 / LXR alpha IP: potency (Inflection Point), compound-induced co-activator recruitment, TR-FRET
T2 construct: purchased Invitrogen pv4655
T2 sequence (Q13133 209-447 limits assumed): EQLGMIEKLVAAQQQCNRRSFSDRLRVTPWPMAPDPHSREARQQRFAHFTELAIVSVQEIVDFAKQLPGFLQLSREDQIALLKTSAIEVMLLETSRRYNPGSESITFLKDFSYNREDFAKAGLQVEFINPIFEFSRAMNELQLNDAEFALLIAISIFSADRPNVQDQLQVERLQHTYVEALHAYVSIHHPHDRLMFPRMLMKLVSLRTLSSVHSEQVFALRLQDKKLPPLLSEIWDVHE
In short: as §1

[3] = read-out: LXR alpha actiivty at max dose, efficacy (% Emax) in relation to reference dual agonist T0901317
[4] = efficacy (% Emax) in relation to reference dual agonist T0901317

SMILES: O=C(c1ccc(OCCCCC2CCN(C(=O)C(O)(c3ccccc3)C(F)(F)F)CC2)cc1Cl)N1C[C@H]2CC[C@@H]1C2 (single isomer, unassigned) [Example 8-14, (R or S)-1-(4-(4-(4-((1R,4S)-2-azabicyclo[2.2.1]heptane-2-carbonyl)-3-chlorophenoxy)butyl)piperidin-1-yl)-3,3,3-trifluoro-2-hydroxy-2-phenylpropan-1-one]
- EC50 [1]: 38 nM
- Emax [1]: 48%
- EC50 ([2]; LXR alpha IP): 227 nM
- Emax [2, 3]: 19%

SMILES: CC(CCCOc1ccc(C(=O)N(C)C)c(Cl)c1)C1CCN(C(=O)C(O)(c2ccccc2)C(F)(F)F)CC1 (single isomer, unassigned) [Example 26-4, 2-chloro-N,N-dimethyl-4-((S or R)-4-(1-((S or R)-3,3,3-trifluoro-2-hydroxy-2-phenylpropanoyl)piperidin-4-yl)pentyloxy)benzamide]
- EC50 [1]: 41 nM
- LXR beta actiivty at max dose [1, 4]: 114%
- EC50 ([2]; LXR alpha IP): 669 nM
- LXR alpha actiivty at max dose [2, 4]: 35%

SMILES: O=C(NC1CC1)c1ccc(OCCCCC2CCN(C(=O)[C@](O)(c3ccccc3)C(F)(F)F)CC2)cc1Cl (single isomer, unassigned) [Example 8-2, (R or S)-2-chloro-N-cyclopropyl-4-(4-(1-(3,3,3-trifluoro-2-hydroxy-2-phenylpropanoyl)piperidin-4-yl)butoxy) benzamide]
- EC50 [1]: 13 nM
- Emax [1]: 68%
- EC50 ([2]; LXR alpha IP): 527 nM
- Emax [2, 3]: 29%

SMILES: Cc1nc(OC2CCC3(CC2)CCN(C(=O)C(O)(c2cccc(OC4CC4)c2)C(F)(F)F)CC3)ccc1C(=O)N(C)C (single isomer, unassigned) [Example 2-1, 6-(3-((R or S)-2-(3-cyclopropoxyphenyl)-3,3,3-trifluoro-2-hydroxypropanoyl)-3-azaspiro[5.5]undecan-9-yloxy)-N,N,2-trimethylnicotinamide]
- EC50 [1]: 140 nM
- Emax [1]: 46%
- LXR alpha IP [2]: No IP
- Emax [2, 3]: 0%

SMILES: COc1cccc([C@](O)(C(=O)N2CCC3(CC2)C[C@H]3CCCOc2ccc(C(=O)N(C)C)c(Cl)c2)C(F)(F)F)c1 (single isomer, unassigned) [Example 14-4, 2-chloro-N,N-dimethyl-4-(3-((R or S)-6-((S or R)-3,3,3-trifluoro-2-hydroxy-2-(3-methoxyphenyl)propanoyl)-6-azaspiro[2.5]octan-1-yl)propoxy)benzamide]
- EC50 [1]: 83 nM
- Emax [1]: 80%
- LXR alpha IP [2]: No IP
- Emax [2, 3]: 0%

SMILES: CC(C)N(C)C(=O)c1ccc(OCCCCC2CCN(C(=O)[C@](O)(c3ccccc3)C(F)(F)F)CC2)cc1Cl (single isomer, unassigned) [Example 8-17, (R or S)-2-chloro-N-isopropyl-N-methyl-4-(4-(1-(3,3,3-trifluoro-2-hydroxy-2-phenylpropanoyl)piperidin-4-yl)butoxy) benzamide]
- EC50 [1]: 17 nM
- Emax [1]: 50%
- LXR alpha IP [2]: No IP
- Emax [2, 3]: 10%

SMILES: CN(C)C(=O)c1ccc(OCCC2CC23CCN(C(=O)C2(c4cc(F)ccc4F)CCC2)CC3)cc1Cl (single isomer, unassigned) [Example 12-11, (S or R)-2-chloro-4-(2-(6-(1-(2,5-difluorophenyl)cyclobutanecarbonyl)-6-azaspiro[2.5]octan-1-yl)ethoxy)-N,N-dimethylbenzamide]
- EC50 [1]: 12 nM
- Emax [1]: 87%
- EC50 ([2]; LXR alpha IP): 447 nM
- Emax [2, 3]: 24%

SMILES: CN(C)C(=O)c1ccc(OCCCCC2CCN(C(=O)C(O)(c3ccccc3)C(F)(F)F)CC2)nc1C#N (stereo not shown) [Example 4-1, 2-cyano-N,N-dimethyl-6-(4-(1-(3,3,3-trifluoro-2-hydroxy-2-phenylpropanoyl)piperidin-4-yl)butoxy)nicotinamide]
- EC50 [1]: 30 nM
- Emax [1]: 77%
- EC50 ([2]; LXR alpha IP): 419 nM
- Emax [2, 3]: 37%

SMILES: Cc1nnc(C(C)(C)C(=O)N2CCC3(CC2)CC3CCOc2ccc(C(=O)N(C)C)c(Cl)c2)s1 (single isomer, unassigned) [Example 12-2, (R or S)-2-chloro-N,N-dimethyl-4-(2-(6-(2-methyl-2-(5-methyl-1,3,4-thiadiazol-2-yl)propanoyl)-6-azaspiro[2.5]octan-1-yl)ethoxy)benzamide]
- EC50 [1]: 661 nM
- Emax [1]: 57%
- EC50 ([2]; LXR alpha IP): 10500 nM
- Emax [2, 3]: 52%

SMILES: CN(C)C(=O)c1ccc(OCCCCC2(C)CCN(C(=O)C3(c4ccccc4)CCCC3)CC2)cc1Cl [Example 9-1, 2-chloro-N,N-dimethyl-4-(4-(4-methyl-1-(1-phenylcyclopentanecarbonyl)piperidin-4-yl)butoxy)benzamide]
- EC50 [1]: 51 nM
- Emax [1]: 88%
- EC50 ([2]; LXR alpha IP): 411 nM
- Emax [2, 3]: 13%

SMILES: CN(C)C(=O)c1ccc(OCC2(CC3CCN(C(=O)C(O)(c4ccccc4)C(F)(F)F)CC3)CC2)cc1Cl (single isomer, unassigned) [Example 17-1, (R or S)-2-chloro-N,N-dimethyl-4-((1-((1-(3,3,3-trifluoro-2-hydroxy-2-phenylpropanoyl)piperidin-4-yl)methyl)cyclopropyl)methoxy)benzamide]
- EC50 [1]: 188 nM
- Emax [1]: 77%
- EC50 ([2]; LXR alpha IP): 1630 nM
- Emax [2, 3]: 19%

SMILES: CN(C)C(=O)c1ccc(OCCCCC2CCN(S(=O)(=O)c3ccccc3C#N)CC2)nc1Cl [Example 7-3, 2-chloro-6-(4-(1-(2-cyanophenylsulfonyl)piperidin-4-yl)butoxy)-N,N-dimethylnicotinamide]
- EC50 [1]: 112 nM
- Emax [1]: 120%
- EC50 ([2]; LXR alpha IP): 2930 nM
- Emax [2, 3]: 57%

SMILES: CN(C)C(=O)c1ccc(OC(F)(F)CCCC2CCN(C(=O)C(O)(c3ccccc3)C(F)(F)F)CC2)cc1Cl (single isomer, unassigned) [Example 19-1, (R or S)-2-chloro-4-(1,1-difluoro-4-(1-(3,3,3-trifluoro-2-hydroxy-2-phenylpropanoyl)piperidin-4-yl)butoxy)-N,N-dimethylbenzamide]
- EC50 [1]: 86 nM
- Emax [1]: 75%
- Emax ([2]; efficacy (% Emax) in relation to reference dual agonist T0901317, read-out: LXR alpha actiivty at max dose): 23%
- EC50 ([2]; read-out: LXR alpha IP): 1170 nM

SMILES: CN(C)C(=O)c1ccc(OC[C@@H](F)CCC2CCN(C(=O)[C@](O)(c3ccccc3)C(F)(F)F)CC2)cc1Cl (single isomer, unassigned) [Example 20-2, 2-chloro-4-((S or R)-2-fluoro-4-(1-((R or S)-3,3,3-trifluoro-2-hydroxy-2-phenylpropanoyl)piperidin-4-yl)butoxy)-N,N-dimethylbenzamide]
- EC50 [1]: 71 nM
- Emax [1]: 73%
- EC50 ([2]; read-out: LXR alpha IP): 1490 nM
- Emax [2, 3]: 25%

SMILES: CN(C)C(=O)c1ccc(OCCCCC2CCN(C(=O)C(C)(O)c3ccccc3)CC2)cc1Cl (single isomer, unassigned) [Example 3-10, (S or R)-2-chloro-4-(4-(1-(2-hydroxy-2-phenylpropanoyl)piperidin-4-yl)butoxy)-N,N-dimethylbenzamide]
- EC50 [1]: 353 nM
- Emax [1]: 55%
- LXR alpha IP [2]: No IP
- Emax [2, 3]: 5%

SMILES: CN(C)C(=O)c1ccc(OCC[C@@H]2CC23CCN(C(=O)[C@](N)(c2ccccc2)C(F)(F)F)CC3)cc1Cl (single isomer, unassigned) [Example 12-21, 4-(2-((S or R)-6-((R or S)-2-amino-3,3,3-trifluoro-2-phenylpropanoyl)-6-azaspiro[2.5]octan-1-yl)ethoxy)-2-chloro-N,N-dimethylbenzamide]
- EC50 [1]: 42 nM
- Emax [1]: 47%
- EC50 ([2]; LXR alpha IP): 1400 nM
- Emax [2, 3]: 23%

SMILES: CN(C(=O)c1ccc(OCCCCC2CCN(C(=O)[C@](O)(c3ccccc3)C(F)(F)F)CC2)cc1Cl)C1CC1 (single isomer, unassigned) [Example 8-12, (R or S)-2-chloro-N-cyclopropyl-N-methyl-4-(4-(1-(3,3,3-trifluoro-2-hydroxy-2-phenylpropanoyl)piperidin-4-yl)butoxy) benzamide]
- EC50 [1]: 16 nM
- Emax [1]: 64%
- EC50 ([2]; LXR alpha IP): 351 nM
- Emax [2, 3]: 7%

SMILES: CN(C)C(=O)c1ccc(OCC[C@@H]2C[C@@H]2C2CCN(C(=O)[C@@](O)(c3ccccc3)C(F)(F)F)CC2)nc1Cl (single isomer, unassigned) [Example 10-6, 2-chloro-N,N-dimethyl-6-(2-((1S,2R or 1R,2S)-2-(1-((S or R)-3,3,3-trifluoro-2-hydroxy-2-phenylpropanoyl)piperidin-4-yl)cyclopropyl)ethoxy) nicotinamide]
- EC50 [1]: 12 nM
- Emax [1]: 71%
- EC50 ([2]; LXR alpha IP): 206 nM
- Emax [2, 3]: 36%

SMILES: CN(C)C(=O)c1ccc(OCC[C@H]2CC23CCN(C(=O)[C@@](N)(c2ccccc2)C(F)(F)F)CC3)cc1Cl (single isomer, unassigned) [Example 12-8, 4-(2-((R or S)-6-((S or R)-2-amino-3,3,3-trifluoro-2-phenylpropanoyl)-6-azaspiro[2.5]octan-1-yl)ethoxy)-2-chloro-N,N-dimethylbenzamide]
- EC50 [1]: 135 nM
- Emax [1]: 67%
- EC50 ([2]; LXR alpha IP): 2230 nM
- Emax [2, 3]: 23%
